Experimental data taken from paper PMC10584170, “Machine learning-based phenotypic imaging to characterise the targetable biology of Plasmodium falciparum male gametocytes for the development of transmission-blocking antimalarials” (PLOS Pathogens, 2023).

Assays:
[1] = system: HepG2 cells; test: HepG2 cytotoxicity counter-screen; conditions: cytotoxic activity against HepG2 cells
[2] = system: P. falciparum female gametocytes; test: P. falciparum Dual Gamete Formation Assay (PfDGFA), female readout (Pfs25-positive female gametes); format: cell-based, Plasmodium falciparum NF54; conditions: for Selectivity ratio F: HepG2 Tox50 versus female IC50; for Average inhibition female (%) / % inhibition female (individual replicates) R1 / % inhibition female (individual replicates) R3 / % inhibition female (individual replicates) R4: 24h preincubation with gametocytes; for Average inhibition female (%): average of replicates; for % inhibition female (individual replicates) R1: replicate R1; for % inhibition female (individual replicates) R3: replicate R3; for % inhibition female (individual replicates) R4: replicate R4; for IC50: PfDGFA, 24 h incubation with gametocytes before induction, female gamete readout, read-out: Female IC50; for HitlevelF: number of replicates with >50% inhibition in the female readout
Method in brief: (§1)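 Male and female gamete formation were quantified by microscopy image analysis following 24 h incubation of mature NF54 gametocytes with compound and activation at 28°C with xanthurenic acid.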

[3] = system: P. falciparum male gametocytes; test: P. falciparum Dual Gamete Formation Assay (PfDGFA), male readout (exflagellation); format: cell-based, Plasmodium falciparum NF54; conditions: for Selectivity Ratio M: HepG2 Tox50 versus male IC50; for Average inhibition male (%) / % inhibition male (individual replicates) R1 / % inhibition male (individual replicates) R3 / % inhibition male (individual replicates) R4: 24h preincubation with gametocytes; for Average inhibition male (%): average of replicates; for % inhibition male (individual replicates) R1: replicate R1; for % inhibition male (individual replicates) R3: replicate R3; for % inhibition male (individual replicates) R4: replicate R4; for IC50: PfDGFA, 24 h incubation with gametocytes before induction, exflagellation readout, read-out: Male IC50; for HitlevelM: number of replicates with >50% inhibition in the male readout
Method in brief: as §1

Compound	Tox50 [1]	Selectivity ratio F [2]	Average inhibition female (%) ([2]; PfDGFA at 2µM)	% inhibition female (individual replicates) R1 ([2]; PfDGFA at 2µM)	% inhibition female (individual replicates) R3 ([2]; PfDGFA at 2µM)	% inhibition female (individual replicates) R4 ([2]; PfDGFA at 2µM)	IC50 [2]	HitlevelF ([2]; 2µM)	Selectivity Ratio M [3]	Average inhibition male (%) ([3]; PfDGFA at 2µM)	% inhibition male (individual replicates) R1 ([3]; PfDGFA at 2µM)	% inhibition male (individual replicates) R3 ([3]; PfDGFA at 2µM)	% inhibition male (individual replicates) R4 ([3]; PfDGFA at 2µM)	IC50 [3]	HitlevelM ([3]; 2µM)	Average inhibition female (%) ([2]; 2µM)	% inhibition female (individual replicates) R1 ([2]; 2µM)	% inhibition female (individual replicates) R3 ([2]; 2µM)	% inhibition female (individual replicates) R4 ([2]; 2µM)	Average inhibition male (%) ([3]; 2µM)	other results
CCN(CC)CCOc1ccc(C(O)(C#CC(O)(c2ccc(OCCN(CC)CC)cc2)c2ccc([N+](=O)[O-])cc2)c2ccc([N+](=O)[O-])cc2)cc1 (stereo not shown) [TCMDC-137201]	3.49 µM	1.17	55.9%	46.7%	67.0%	64.5%	2990 nM	2	2.26	85.9%	82.3%	94.6%	93.0%	1540 nM	4	–	–	–	–	–	–
CCCCOc1ccc(CNCCCCCCNCc2ccc(OCCCC)c3ccccc23)c2ccccc12.CS(=O)(=O)O [TCMDC-137281]	1.45 µM	2.64	94.7%	94.0%	97.9%	90.5%	550 nM	4	2.64	88.9%	95.9%	90.2%	93.5%	550 nM	4	–	–	–	–	–	–
CS(=O)(=O)O.FC(F)(F)COc1ccc(CCNCCCCNCCc2ccc(OCC(F)(F)F)c3ccccc23)c2ccccc12 [TCMDC-137282]	2.39 µM	1.73	–	–	–	–	1380 nM	–	4.68	–	–	–	–	510 nM	–	56.0%	58.1%	59.1%	54.8%	98.5%	% inhibition male (individual replicates) R1 ([3]; 2µM): 98.3%; % inhibition male (individual replicates) R4 ([3]; 2µM): 97.4%
COc1ccc2c(CNCCCCCCNCc3c(OC)ccc4cc(OC)ccc34)c(OC)ccc2c1.CS(=O)(=O)O [TCMDC-137300]	3.63 µM	0.75	–	–	–	–	4850 nM	–	2.01	–	–	–	–	1810 nM	–	77.0%	80.6%	93.8%	84.0%	90.0%	% inhibition male (individual replicates) R1 ([3]; 2µM): 98.2%; % inhibition male (individual replicates) R3 ([3]; 2µM): 95.7%; % inhibition male (individual replicates) R4 ([3]; 2µM): 96.8%
CS(=O)(=O)O.FC(F)(F)COc1ccc2ccccc2c1CCNCCCCNCCc1c(OCC(F)(F)F)ccc2ccccc12 [TCMDC-137317]	0.8 µM	0.26	40.6%	30.1%	13.1%	36.4%	3050 nM	1	0.53	88.2%	92.7%	68.3%	96.2%	1520 nM	4	–	–	–	–	–	–
C=CCOc1ccc2ccccc2c1CNCCCCCCNCc1c(OCC=C)ccc2ccccc12.CS(=O)(=O)O [TCMDC-137340]	3.85 µM	1.38	45.4%	35.2%	31.1%	51.0%	2790 nM	2	1.99	87.7%	90.7%	68.3%	95.6%	1930 nM	4	–	–	–	–	–	–
